Measured values published in patent publication US5945436A, “Pyridylmethyl nitriles, amides and thioamides useful as fungicides” (Uniroyal Chemical Company, Inc., priority 1997, dated 1999).

Columns and labels:
Botrytis cinerea = assay: Fungal growth inhibition, treated disc on agar (BOT CIN); assay type: cell-based; conditions: disc dipped in 500 mg/l, 29° C.
Description: (§3) Filter paper discs, each 11 mm. in diameter, were dipped in each of the test solutions. The discs were allowed to air dry to drive off the acetone solvent. A number of untreated discs were used as controls.
(§4) The treated and untreated discs were then placed on agar plates and one of the following fungus species: Septoria nodorum (SEP NOD), Botrytis cinerea (BOT CIN), Fusarium oxysporum (FUS OXY), Pythium ultimum (PYT ULT), Rhizoctonia solani (RHI SOL), Colletotrichum gossypii (COL GOS), and Scierotinia minor (SCL MIN), was added to the center of each disc in the form of a culture plug with the fungus mat in contact with the paper of the test disc. Cercosporidium personatum (CER PER), was added to discs as a spore suspension (20,000 spores/ml) to the disc (two drops of spore suspension per disc), rather than a mycelial culture plug. The plates were then incubated at 29° C. in an oven.
(§5) With the exception of the discs containing Cercosporidium personatum, the discs were evaluated by first measuring the radius from the center of the fungus colony on the treated discs and on the untreated discs. Percent growth inhibition of each of the compounds tested was determined as a function of the difference between the radius of the fungus colony on the treated disc versus the radius of the fungus colony on the untreated disc.

Uromyces phaseoli = assay: Bean rust fungus eradicant test (URO PHA); assay type: in vivo; conditions: pinto bean, eradicant spray 2 days after inoculation, 1,000 mg/l
Description: Compositions containing Compounds Nos. 1-81 were prepared by dissolving 0.24 grams of each of the compounds in 8 ml of acetone or other suitable inert solvent. Each of the resultant solutions was treated with 3 drops of TWEEN 20 (ethoxylated ethylene sorbitan monolaurate, a non-ionic surfactant)(I.C.I.), and water was added to form an emulsion. The degree of dilution with water was dictated by the desired concentration of the compound in the composition. The greater the quantity of water added, the lower the concentration of the compound in the composition, reported in milligrams per liter (mg/l) A plurality of pots were each planted with two pinto bean plants, Phaseolus vulgaris, each, susceptible to rust disease. When the plants were 7 days old, at the primary leaf stage of growth, they were all sprayed with a suspension containing 20,000 spores of the bean rust fungus, Uromyces phaseoli, per ml. All the pots were then incubated in a controlled environmental chamber, maintained at 99% humidity and 21° C., for 24 hours to allow infection to occur. The plants were then removed from the incubator and allowed to dry. Two days after inoculation each of the infected plants was then either sprayed with one of the compositions of Example 9, at a dosage of 1,000 mg/l, or left unsprayed. The unsprayed plants acted as controls. All of the sprayed and unsprayed plants were then placed in a greenhouse at 21° C. for nine days to allow the disease to develop. […] Control of disease was determined by comparing treated plants with the untreated controls. The results, expressed as percent reduction of disease, are summarized in Table II under the heading "URO PHA".

Helminthosporium sativum = assay: Barley spot blotch, foliar treatment (HEL SAT); assay type: in vivo; conditions: foliar, 1,000 mg/l
Description: Compositions containing Compounds Nos. 1-81 were prepared by dissolving 0.24 grams of each of the compounds in 8 ml of acetone or other suitable inert solvent. Each of the resultant solutions was treated with 3 drops of TWEEN 20 (ethoxylated ethylene sorbitan monolaurate, a non-ionic surfactant)(I.C.I.), and water was added to form an emulsion. The degree of dilution with water was dictated by the desired concentration of the compound in the composition. The greater the quantity of water added, the lower the concentration of the compound in the composition, reported in milligrams per liter (mg/l) Ten plants of six day-old Barley (variety "Robust") were planted in each of a plurality of pots. Each pot was then either sprayed with one of the compositions of Example 9, at a concentration of 1,000 mg/l, or left unsprayed. The unsprayed plants were used as controls. An equal number of pots were sprayed and unsprayed. All plants, sprayed and unsprayed, were thereafter inoculated with spores of the blotch fungus Helminthosporium sativum. All inoculated plants were placed in a 99% humidity chamber for 24 hours and then placed in a greenhouse, maintained at a temperature of 21° C., for eight days. […] Percent control was computed and the results are summarized in Table II under the heading "HEL SAT".

Pyricularia oryzae = assay: whole plant or invertebrate; assay type: in vivo; conditions: barley, foliar, 1,000 mg/l
Pythium ultimum = assay: Fungal growth inhibition, treated disc on agar (PYT ULT); assay type: cell-based; conditions: disc dipped in 500 mg/l, 29° C.
Rhizoctonia solani = assay: Fungal growth inhibition, treated disc on agar (RHI SOL); assay type: cell-based; conditions: disc dipped in 500 mg/l, 29° C.
Description: as §3, §4, §5

Fusarium oxysporum = assay: Fungal growth inhibition, treated disc on agar (FUS OXY); assay type: cell-based; conditions: disc dipped in 500 mg/l, 29° C.
Colletotrichum gossypii = assay: Fungal growth inhibition, treated disc on agar (COL GOS); assay type: cell-based; conditions: disc dipped in 500 mg/l, 29° C.
Description: as §3, §4, §5

Erysiphe graminis [1] = assay: Powdery mildew of barley, systemic root uptake (BMS); assay type: in vivo; conditions: 45 ml of 250 mg/l, 8 days after inoculation
Description: (§1) Compositions containing Compounds Nos. 1-81 were prepared by dissolving 0.24 grams of each of the compounds in 8 ml of acetone or other suitable inert solvent. Each of the resultant solutions was treated with 3 drops of TWEEN 20 (ethoxylated ethylene sorbitan monolaurate, a non-ionic surfactant)(I.C.I.), and water was added to form an emulsion. The degree of dilution with water was dictated by the desired concentration of the compound in the composition. The greater the quantity of water added, the lower the concentration of the compound in the composition, reported in milligrams per liter (mg/l) […] Upon reaching these ages, the plants were either treated with 45 ml of 250 mg/l concentration of the compositions of Example 9 or were left untreated. The untreated plants were used as controls. The 45 ml compositions saturated the soil of the treated pots without significant loss through drainage into the saucers below the pots. Twenty-four hours after the treatment with the compositions, both the barley and cucumber plants in all the pots, those treated and those untreated, were inoculated with powdery mildew fungus. This was accomplished by tapping leaves of previously infected barley and cucumber plants over the treated and untreated pots containing the barley and cucumber plants, respectively, to distribute spores of the fungus over the plants tested. […] Intermediate ratings were assigned depending on the degree of disease. […] The results of the powdery mildew disease control of barley are reported under the heading of "BMS". The results for cucumber mildew control are reported under the heading "CMS".

Erysiphe graminis [2] = assay: Powdery mildew in barley, foliar application (ERY GRA); assay type: in vivo; conditions: foliar, 1,000 mg/l, 8 days after inoculation
Description: (§2) Compositions containing Compounds Nos. 1-81 were prepared by dissolving 0.24 grams of each of the compounds in 8 ml of acetone or other suitable inert solvent. Each of the resultant solutions was treated with 3 drops of TWEEN 20 (ethoxylated ethylene sorbitan monolaurate, a non-ionic surfactant)(I.C.I.), and water was added to form an emulsion. The degree of dilution with water was dictated by the desired concentration of the compound in the composition. The greater the quantity of water added, the lower the concentration of the compound in the composition, reported in milligrams per liter (mg/l) Ten plants of "Robust" variety barley were planted in each of a plurality of pots. Each pot was then either sprayed with one of the compositions of Example 9, at a composition concentration of 1,000 mg/l, or left unsprayed. For each pot sprayed, one pot was left unsprayed as a control. After the leaves of the sprayed pots were dried, the sprayed pots and the unsprayed control pots were placed in a greenhouse maintained at 21° C. All the pots were then inoculated with barley powdery mildew fungus, Erysiphe graminis. This inoculation was accomplished by distributing spores of the fungus over the leaves of the plants to be tested from plants which had previously been infected with the mildew disease. […] Again, percent control was computed by comparing the treatment scores with the scores of the untreated controls. The results are summarized in Table II under the heading "ERY GRA".

Erysiphe cichoracearum = assay: Powdery mildew of cucumber, systemic root uptake (CMS); assay type: in vivo; conditions: 45 ml of 250 mg/l, 8 days after inoculation
Description: as §1

Erysiphe polygoni = assay: Powdery mildew on pinto bean, foliar application (ERY POL); assay type: in vivo; conditions: similar procedure as barley (1,000 mg/l)
Description: as §2, with “GRA". Using a similar procedure as described above for the barley, pinto bean plants were prepared, treated and inoculated with the fungus Erysiphe polygoni. The results of this testing are summarized in Table II under the heading "ERY POL".” for “GRA".”

Septoria nodorum = assay: Fungal growth inhibition, treated disc on agar (SEP NOD); assay type: cell-based; conditions: disc dipped in 500 mg/l, 29° C.
Scierotinia minor = assay: Fungal growth inhibition, treated disc on agar (SCL MIN); assay type: cell-based; conditions: disc dipped in 500 mg/l, 29° C.
Description: as §3, §4, §5

CCCCC(C#N)(CCc1ccc(OC)cc1)c1ccccn1 (centres unmarked) [Compound 27]
Percent Growth Inhibition, BOT CIN (Botrytis cinerea): 78% | Percent Reduction of Disease, URO PHA (Uromyces phaseoli): 100% | Percent Reduction of Disease, HEL SAT (Helminthosporium sativum): 90% | Percent Reduction of Disease, PYR ORY (Pyricularia oryzae): 70% | Percent Growth Inhibition, PYT ULT (Pythium ultimum): 10% | Percent Growth Inhibition, RHI SOL (Rhizoctonia solani): 5% | Percent Growth Inhibition, FUS OXY (Fusarium oxysporum): 10% | Percent Growth Inhibition, COL GOS (Colletotrichum gossypii): 20% | Percent Reduction of Disease, BMS (Erysiphe graminis [1]): 0% | Percent Reduction of Disease, ERY GRA (Erysiphe graminis [2]): 90% | Percent Reduction of Disease, CMS (Erysiphe cichoracearum): 0% | Percent Reduction of Disease, ERY POL (Erysiphe polygoni): 90% | Percent Growth Inhibition, SEP NOD (Septoria nodorum): 10% | Percent Growth Inhibition, SCL MIN (Scierotinia minor): 93%
